Calls of active or inactive are those of the source. No cut-off for these calls is given here.
Columns and labels:
[1] = target: Platelet-derived growth factor receptor alpha (Homo sapiens) (UniProt P16234); conditions: Compound concentration 100.0 nM
[2] = target: Ephrin type-B receptor 2 (Homo sapiens) (UniProt P29323); conditions: Compound concentration 100.0 nM
Mast cell = test: Human Mast Cell degranulation; assay type: cell-based
[3] = target: Serine/threonine-protein kinase ULK1 (Homo sapiens) (UniProt O75385); conditions: Compound concentration 100.0 nM
[4] = target: Tyrosine-protein kinase Fes/Fps (Homo sapiens) (UniProt P07332); conditions: Compound concentration 100.0 nM
[5] = target: Myosin light chain kinase (Homo sapiens) (UniProt Q32MK0); conditions: Compound concentration 100.0 nM
[6] = target: Serine/threonine-protein kinase Nek6 (Homo sapiens) (UniProt Q9HC98); conditions: Compound concentration 100.0 nM
[7] = target: Cyclin-dependent kinase 8 (Homo sapiens) (UniProt P49336); conditions: Compound concentration 100.0 nM
[8] = target: Serine/threonine-protein kinase pim-1 (Homo sapiens) (UniProt P11309); conditions: Compound concentration 100.0 nM
[9] = target: Serine/threonine-protein kinase pim-2 (Homo sapiens) (UniProt Q9P1W9); conditions: Compound concentration 100.0 nM
[10] = target: Inhibitor of nuclear factor kappa-B kinase subunit beta (Homo sapiens) (UniProt O14920); conditions: Compound concentration 100.0 nM
[11] = target: Misshapen-like kinase 1 (Homo sapiens) (UniProt Q8N4C8); conditions: Compound concentration 100.0 nM
[12] = test system: Phosphatidylinositol 4,5-bisphosphate 3-kinase catalytic subunit alpha isoform (Homo sapiens), P42336 [E545K]; conditions: Compound concentration 100.0 nM
[13] = target: Serine/threonine-protein kinase SIK1 (Homo sapiens) (UniProt P57059); conditions: Compound concentration 100.0 nM
[14] = target: 5-hydroxytryptamine receptor 2A (Homo sapiens) (UniProt P28223); conditions: Compound concentration 10.0 uM
[15] = target: Macrophage colony-stimulating factor 1 receptor (Homo sapiens) (UniProt P07333); conditions: Compound concentration 100.0 nM
[16] = target: Serine/threonine-protein kinase PAK 3 (Homo sapiens) (UniProt O75914); conditions: Compound concentration 100.0 nM
[17] = target: Calcium/calmodulin-dependent protein kinase type II subunit alpha (Homo sapiens) (UniProt Q9UQM7); conditions: Compound concentration 100.0 nM
[18] = test system: Mast/stem cell growth factor receptor Kit (Homo sapiens), P10721 [V559D,T670I]; conditions: Compound concentration 100.0 nM
[19] = target: Protein-tyrosine kinase 6 (Homo sapiens) (UniProt Q13882); conditions: Compound concentration 100.0 nM
[20] = target: Myosin light chain kinase 2, skeletal/cardiac muscle (Homo sapiens) (UniProt Q9H1R3); conditions: Compound concentration 100.0 nM
[21] = target: MAP/microtubule affinity-regulating kinase 4 (Homo sapiens) (UniProt Q96L34); conditions: Compound concentration 100.0 nM
[22] = test system: Mast/stem cell growth factor receptor Kit (Homo sapiens), P10721 [V559D]; conditions: Compound concentration 100.0 nM
[23] = target: Receptor tyrosine-protein kinase erbB-2 (Homo sapiens) (UniProt P04626); conditions: Compound concentration 100.0 nM
[24] = target: Serine/threonine-protein kinase PLK2 (Homo sapiens) (UniProt Q9NYY3); conditions: Compound concentration 100.0 nM
[25] = target: SNF-related serine/threonine-protein kinase (Homo sapiens) (UniProt Q9NRH2); conditions: Compound concentration 100.0 nM
[26] = target: Myosin light chain kinase family member 4 (Homo sapiens) (UniProt Q86YV6); conditions: Compound concentration 100.0 nM
[27] = target: cGMP-dependent protein kinase 1 (Homo sapiens) (UniProt Q13976); conditions: Compound concentration 100.0 nM
[28] = target: Protein kinase C eta type (Homo sapiens) (UniProt P24723); conditions: Compound concentration 100.0 nM
[29] = target: BDNF/NT-3 growth factors receptor (Homo sapiens) (UniProt Q16620); conditions: Compound concentration 100.0 nM
[30] = target: Ephrin type-B receptor 4 (Homo sapiens) (UniProt P54760); conditions: Compound concentration 100.0 nM
[31] = target: Angiopoietin-1 receptor (Homo sapiens) (UniProt Q02763); conditions: Compound concentration 100.0 nM
[32] = target: Ephrin type-A receptor 2 (Homo sapiens) (UniProt P29317); conditions: Compound concentration 100.0 nM
[33] = target: 1-phosphatidylinositol 3-phosphate 5-kinase (Homo sapiens) (UniProt Q9Y2I7); conditions: Compound concentration 100.0 nM
[34] = target: MAP kinase-activated protein kinase 2 (Homo sapiens) (UniProt P49137); conditions: Compound concentration 100.0 nM
[35] = test system: Epidermal growth factor receptor (Homo sapiens), P00533 [G719S]; conditions: Compound concentration 100.0 nM
[36] = target: Serine/threonine-protein kinase ULK2 (Homo sapiens) (UniProt Q8IYT8); conditions: Compound concentration 100.0 nM
[37] = target: Interleukin-1 receptor-associated kinase 3 (Homo sapiens) (UniProt Q9Y616); conditions: Compound concentration 100.0 nM
[38] = target: Activin receptor type-2B (Homo sapiens) (UniProt Q13705); conditions: Compound concentration 100.0 nM
[39] = target: Serine/threonine-protein kinase Sgk2 (Homo sapiens) (UniProt Q9HBY8); conditions: Compound concentration 100.0 nM
[40] = target: Serine/threonine-protein kinase Nek9 (Homo sapiens) (UniProt Q8TD19); conditions: Compound concentration 100.0 nM
[41] = test system: Mast/stem cell growth factor receptor Kit (Homo sapiens), P10721 [D816H]; conditions: Compound concentration 100.0 nM
[42] = test system: Receptor-type tyrosine-protein kinase FLT3 (Homo sapiens), P36888 [R834Q]; conditions: Compound concentration 100.0 nM
[43] = target: Macrophage-stimulating protein receptor (Homo sapiens) (UniProt Q04912); conditions: Compound concentration 100.0 nM
[44] = test system: Epidermal growth factor receptor (Homo sapiens), P00533 [G719C]; conditions: Compound concentration 100.0 nM
[45] = target: Mast/stem cell growth factor receptor Kit (Homo sapiens) (UniProt P10721); conditions: Compound concentration 100.0 nM

Chain of Mast/stem cell growth factor receptor Kit (Homo sapiens), P10721 [V559D,T670I] (P10721 whole entry V559D/T670I): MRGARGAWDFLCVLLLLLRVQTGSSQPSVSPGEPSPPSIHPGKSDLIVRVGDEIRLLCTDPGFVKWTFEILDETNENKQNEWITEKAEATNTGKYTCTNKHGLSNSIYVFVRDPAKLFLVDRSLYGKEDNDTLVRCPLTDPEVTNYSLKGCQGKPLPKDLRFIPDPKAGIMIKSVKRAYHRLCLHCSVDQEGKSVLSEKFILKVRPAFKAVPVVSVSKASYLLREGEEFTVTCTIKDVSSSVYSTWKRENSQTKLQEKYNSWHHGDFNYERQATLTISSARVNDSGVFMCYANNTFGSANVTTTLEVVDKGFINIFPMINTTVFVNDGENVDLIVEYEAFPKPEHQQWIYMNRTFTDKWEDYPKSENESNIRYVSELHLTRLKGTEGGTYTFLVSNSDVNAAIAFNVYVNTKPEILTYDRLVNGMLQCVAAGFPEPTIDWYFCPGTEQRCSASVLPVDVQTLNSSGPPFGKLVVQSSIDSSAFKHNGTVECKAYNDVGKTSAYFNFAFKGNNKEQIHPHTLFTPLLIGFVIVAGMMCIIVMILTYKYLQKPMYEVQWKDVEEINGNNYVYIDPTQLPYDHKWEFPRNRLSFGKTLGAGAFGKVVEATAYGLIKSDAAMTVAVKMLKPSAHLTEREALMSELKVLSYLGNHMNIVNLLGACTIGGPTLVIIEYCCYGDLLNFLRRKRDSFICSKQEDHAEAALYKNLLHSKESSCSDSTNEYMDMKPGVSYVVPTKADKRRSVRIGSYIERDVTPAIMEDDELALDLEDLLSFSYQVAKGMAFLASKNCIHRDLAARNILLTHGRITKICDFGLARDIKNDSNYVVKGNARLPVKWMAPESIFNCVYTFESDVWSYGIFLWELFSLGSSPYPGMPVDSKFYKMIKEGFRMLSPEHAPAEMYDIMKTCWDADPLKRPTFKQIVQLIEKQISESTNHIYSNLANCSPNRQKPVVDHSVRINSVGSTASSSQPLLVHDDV
Chain of Serine/threonine-protein kinase SIK1 (Homo sapiens) (P57059 whole entry): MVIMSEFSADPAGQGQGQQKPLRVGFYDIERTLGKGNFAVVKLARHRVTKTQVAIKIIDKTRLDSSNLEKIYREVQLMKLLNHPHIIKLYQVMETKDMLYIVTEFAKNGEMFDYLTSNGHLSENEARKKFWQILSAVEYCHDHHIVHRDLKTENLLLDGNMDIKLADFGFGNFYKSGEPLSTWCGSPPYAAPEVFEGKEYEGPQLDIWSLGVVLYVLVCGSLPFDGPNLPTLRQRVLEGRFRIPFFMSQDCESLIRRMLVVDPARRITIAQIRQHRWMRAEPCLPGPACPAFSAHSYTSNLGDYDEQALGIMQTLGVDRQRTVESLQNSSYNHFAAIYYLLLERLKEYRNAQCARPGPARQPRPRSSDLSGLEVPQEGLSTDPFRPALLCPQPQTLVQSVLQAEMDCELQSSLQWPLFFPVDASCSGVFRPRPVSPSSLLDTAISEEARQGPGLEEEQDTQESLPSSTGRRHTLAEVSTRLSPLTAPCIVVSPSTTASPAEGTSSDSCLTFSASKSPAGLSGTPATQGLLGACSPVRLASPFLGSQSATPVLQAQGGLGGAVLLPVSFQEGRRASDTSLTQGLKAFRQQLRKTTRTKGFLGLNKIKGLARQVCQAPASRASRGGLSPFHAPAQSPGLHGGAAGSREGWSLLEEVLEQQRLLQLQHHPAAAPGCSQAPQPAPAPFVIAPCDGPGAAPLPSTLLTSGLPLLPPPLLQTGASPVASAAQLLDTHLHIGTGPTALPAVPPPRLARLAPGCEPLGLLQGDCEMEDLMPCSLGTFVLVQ
Chain of 5-hydroxytryptamine receptor 2A (Homo sapiens) (P28223 whole entry): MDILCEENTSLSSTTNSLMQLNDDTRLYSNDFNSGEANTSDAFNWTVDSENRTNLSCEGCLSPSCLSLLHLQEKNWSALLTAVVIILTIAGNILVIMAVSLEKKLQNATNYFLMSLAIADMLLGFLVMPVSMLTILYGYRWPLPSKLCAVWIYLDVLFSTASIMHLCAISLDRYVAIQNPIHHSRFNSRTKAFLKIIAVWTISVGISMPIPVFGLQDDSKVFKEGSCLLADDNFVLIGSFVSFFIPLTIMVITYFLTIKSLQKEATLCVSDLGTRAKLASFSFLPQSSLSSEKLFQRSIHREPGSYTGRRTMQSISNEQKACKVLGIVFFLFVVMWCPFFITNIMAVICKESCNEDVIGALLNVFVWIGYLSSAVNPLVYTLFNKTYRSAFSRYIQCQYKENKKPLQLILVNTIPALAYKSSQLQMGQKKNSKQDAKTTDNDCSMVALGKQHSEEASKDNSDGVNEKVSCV
Chain of Inhibitor of nuclear factor kappa-B kinase subunit beta (Homo sapiens) (O14920 whole entry): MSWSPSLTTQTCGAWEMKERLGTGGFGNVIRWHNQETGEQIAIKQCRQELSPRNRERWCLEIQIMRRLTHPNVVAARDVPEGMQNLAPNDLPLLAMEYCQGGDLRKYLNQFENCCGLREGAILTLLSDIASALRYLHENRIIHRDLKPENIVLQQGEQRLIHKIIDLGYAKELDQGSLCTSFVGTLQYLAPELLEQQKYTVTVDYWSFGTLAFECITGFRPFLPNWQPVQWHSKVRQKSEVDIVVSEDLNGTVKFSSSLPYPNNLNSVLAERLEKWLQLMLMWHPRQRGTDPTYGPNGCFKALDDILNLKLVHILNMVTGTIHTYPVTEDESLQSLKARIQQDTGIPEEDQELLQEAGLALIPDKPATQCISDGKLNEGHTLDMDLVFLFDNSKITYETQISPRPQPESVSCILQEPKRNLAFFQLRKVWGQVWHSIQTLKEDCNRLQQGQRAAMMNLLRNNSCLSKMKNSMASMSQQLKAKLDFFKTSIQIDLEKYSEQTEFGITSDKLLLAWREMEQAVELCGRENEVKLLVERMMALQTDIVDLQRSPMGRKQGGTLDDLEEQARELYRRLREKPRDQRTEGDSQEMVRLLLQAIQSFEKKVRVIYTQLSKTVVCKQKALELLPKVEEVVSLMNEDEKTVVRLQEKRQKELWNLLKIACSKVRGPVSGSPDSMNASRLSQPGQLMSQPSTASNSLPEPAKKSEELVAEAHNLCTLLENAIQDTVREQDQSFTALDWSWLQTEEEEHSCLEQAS
Chain of Receptor tyrosine-protein kinase erbB-2 (Homo sapiens) (P04626 whole entry): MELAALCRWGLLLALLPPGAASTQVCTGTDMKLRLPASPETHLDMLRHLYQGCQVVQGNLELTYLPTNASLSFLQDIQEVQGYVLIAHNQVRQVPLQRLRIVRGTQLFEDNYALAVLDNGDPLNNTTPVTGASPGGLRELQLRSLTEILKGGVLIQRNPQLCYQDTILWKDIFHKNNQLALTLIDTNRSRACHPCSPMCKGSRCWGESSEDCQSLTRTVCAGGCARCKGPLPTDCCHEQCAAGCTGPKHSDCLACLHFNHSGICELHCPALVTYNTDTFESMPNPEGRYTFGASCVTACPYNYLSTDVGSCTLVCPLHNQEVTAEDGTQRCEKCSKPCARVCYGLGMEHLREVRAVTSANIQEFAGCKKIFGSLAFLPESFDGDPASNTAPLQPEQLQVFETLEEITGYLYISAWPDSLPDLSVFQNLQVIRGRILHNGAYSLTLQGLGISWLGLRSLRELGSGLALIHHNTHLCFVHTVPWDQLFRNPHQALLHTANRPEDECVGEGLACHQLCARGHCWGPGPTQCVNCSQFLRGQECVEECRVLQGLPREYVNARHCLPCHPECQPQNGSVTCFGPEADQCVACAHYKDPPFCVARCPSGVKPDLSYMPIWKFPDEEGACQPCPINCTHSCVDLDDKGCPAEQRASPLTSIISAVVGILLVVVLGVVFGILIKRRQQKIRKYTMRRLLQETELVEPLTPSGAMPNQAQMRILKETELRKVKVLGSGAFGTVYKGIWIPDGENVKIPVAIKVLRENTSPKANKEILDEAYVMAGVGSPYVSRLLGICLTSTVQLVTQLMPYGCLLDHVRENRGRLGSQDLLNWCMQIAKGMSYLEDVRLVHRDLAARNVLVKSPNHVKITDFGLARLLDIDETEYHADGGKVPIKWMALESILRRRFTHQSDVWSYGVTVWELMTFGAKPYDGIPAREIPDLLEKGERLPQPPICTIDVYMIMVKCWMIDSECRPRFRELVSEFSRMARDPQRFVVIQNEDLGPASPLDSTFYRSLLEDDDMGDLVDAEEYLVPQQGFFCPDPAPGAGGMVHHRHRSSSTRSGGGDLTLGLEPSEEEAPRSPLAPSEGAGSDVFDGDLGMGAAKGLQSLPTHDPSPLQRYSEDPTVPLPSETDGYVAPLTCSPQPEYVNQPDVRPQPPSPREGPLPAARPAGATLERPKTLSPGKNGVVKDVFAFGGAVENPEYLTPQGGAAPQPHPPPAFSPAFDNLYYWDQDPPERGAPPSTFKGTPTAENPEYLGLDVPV
Chain of Interleukin-1 receptor-associated kinase 3 (Homo sapiens) (Q9Y616 whole entry): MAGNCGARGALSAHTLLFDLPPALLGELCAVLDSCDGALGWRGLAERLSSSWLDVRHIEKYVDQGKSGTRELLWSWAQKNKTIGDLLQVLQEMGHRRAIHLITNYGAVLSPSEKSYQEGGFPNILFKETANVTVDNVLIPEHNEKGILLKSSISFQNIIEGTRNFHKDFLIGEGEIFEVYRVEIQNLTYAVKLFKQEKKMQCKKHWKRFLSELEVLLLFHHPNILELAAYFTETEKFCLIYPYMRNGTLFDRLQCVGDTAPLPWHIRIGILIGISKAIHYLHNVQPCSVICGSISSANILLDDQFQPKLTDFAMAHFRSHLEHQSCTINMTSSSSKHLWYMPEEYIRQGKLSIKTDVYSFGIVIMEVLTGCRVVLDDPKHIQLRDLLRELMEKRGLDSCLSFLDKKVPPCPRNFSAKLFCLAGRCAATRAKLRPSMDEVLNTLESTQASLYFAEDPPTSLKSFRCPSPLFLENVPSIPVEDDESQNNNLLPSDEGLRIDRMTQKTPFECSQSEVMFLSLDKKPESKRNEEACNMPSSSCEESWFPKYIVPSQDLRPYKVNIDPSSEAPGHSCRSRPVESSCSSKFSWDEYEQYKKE

## Cc1ccc(-c2cnc([C@@]3(O)CC[C@H](C(=O)O)C(C)(C)C3)s2)cc1Nc1cccc(C(F)(F)F)n1 [MRL-SYKi-NC]
[1]
  residual activity: 92.6%
[2]
  residual activity: 100%
Mast cell
  IC50: > 10 µM (not active)
[3]
  residual activity: 73.1%
[4]
  residual activity: 100%
[5]
  residual activity: 90.9%
[6]
  residual activity: 89.7%
[7]
  residual activity: 78.7%
[8]
  residual activity: 100%
[9]
  residual activity: 87.9%
[10]
  residual activity: 43.1%
[11]
  residual activity: 100%
[12]
  residual activity: 97.7%
[13]
  residual activity: 100%
[14]
  inhibition: 11.2%
[15]
  residual activity: 84%
[16]
  residual activity: 76.3%
[17]
  residual activity: 90.8%
[18]
  residual activity: 99.7%
[19]
  residual activity: 100%
[20]
  residual activity: 90.9%
[21]
  residual activity: 71.5%
[22]
  residual activity: 90%
[23]
  residual activity: 100%
[24]
  residual activity: 100%
[25]
  residual activity: 90.1%
[26]
  residual activity: 100%
[27]
  residual activity: 77.5%
[28]
  residual activity: 74.6%
[29]
  residual activity: 67.2%
[30]
  residual activity: 100%
[31]
  residual activity: 95.2%
[32]
  residual activity: 100%
[33]
  residual activity: 89.4%
[34]
  residual activity: 97.9%
[35]
  residual activity: 99.3%
[36]
  residual activity: 76%
[37]
  residual activity: 93%
[38]
  residual activity: 100%
[39]
  residual activity: 57.3%
[40]
  residual activity: 80.3%
[41]
  residual activity: 61.4%
[42]
  residual activity: 70.5%
[43]
  residual activity: 100%
[44]
  residual activity: 100%
[45]
  residual activity: 100%

## Cc1cc(Nc2nccc(C)n2)cc(-c2cnc([C@@]3(O)CC[C@H](C(=O)O)C(C)(C)C3)s2)c1 [MRL-SYKi]
[1]
  residual activity: 100%
[2]
  residual activity: 100%
Mast cell
  IC50: 0.038 µM (active)
[3]
  residual activity: 100%
[4]
  residual activity: 100%
[5]
  residual activity: 100%
[6]
  residual activity: 100%
[7]
  residual activity: 100%
[8]
  residual activity: 91.7%
[9]
  residual activity: 100%
[10]
  residual activity: 100%
[11]
  residual activity: 80.7%
[12]
  residual activity: 68.3%
[13]
  residual activity: 94.3%
[14]
  inhibition: -4.23%
[15]
  residual activity: 85.6%
[16]
  residual activity: 100%
[17]
  residual activity: 100%
[18]
  residual activity: 83.9%
[19]
  residual activity: 100%
[20]
  residual activity: 100%
[21]
  residual activity: 100%
[22]
  residual activity: 100%
[23]
  residual activity: 89.6%
[24]
  residual activity: 100%
[25]
  residual activity: 100%
[26]
  residual activity: 100%
[27]
  residual activity: 100%
[28]
  residual activity: 97.5%
[29]
  residual activity: 60.3%
[30]
  residual activity: 100%
[31]
  residual activity: 99%
[32]
  residual activity: 100%
[33]
  residual activity: 98.7%
[34]
  residual activity: 100%
[35]
  residual activity: 100%
[36]
  residual activity: 100%
[37]
  residual activity: 44.7%
[38]
  residual activity: 82.8%
[39]
  residual activity: 100%
[40]
  residual activity: 92.8%
[41]
  residual activity: 97.7%
[42]
  residual activity: 96.3%
[43]
  residual activity: 65.9%
[44]
  residual activity: 100%
[45]
  residual activity: 93.2%
